Active and inactive are the calls of the source. The calls are words filed in the database; no cut-off is given here.
Legend:
[1] = Displacement of Cy5-labelled (position-4) ATP from human HSP70 expressed in Escherichia coli BL21(DE3) after 16 hrs by microarray assay
[2] = species: Homo sapiens; test: Binding affinity to human HSP70 expressed in Escherichia coli BL21(DE3) at 100 uM after 16 hrs microarray assay
[3] = Displacement of Cy5-labelled (position-4) ATP from Mycobacterium tuberculosis HSP70 expressed in Escherichia coli BL21(DE3) after 16 hrs by microarray assay

Compound	EC50 [1] [µM]	Kd [3] [µM]	Kd [1] [nM]	further results
COc1ccc(-c2c(OC)c(O)c(-c3ccc(O)cc3)c(O)c2OC)cc1	29			
CC[N+]1=C(/C=C/C=C/C=C2/N(CCCCCC(=O)NCCCCCCNP(=O)(O)OP(=O)(O)OP(=O)(O)OC[C@H]3O[C@@H](n4cnc5c(N)ncnc54)[C@H](O)[C@@H]3O)c3ccc(S(=O)(=O)O)cc3C2(C)C)C(C)(C)c2cc(S(=O)(=O)[O-])ccc21				Activity [2]: inactive
CC[N+]1=C(/C=C/C=C/C=C2/N(CCCCCC(=O)NCCCCCCNc3ncnc4c3ncn4[C@@H]3O[C@H](COP(=O)(O)OP(=O)(O)OP(=O)(O)O)[C@@H](O)[C@H]3O)c3ccc(S(=O)(=O)O)cc3C2(C)C)C(C)(C)c2cc(S(=O)(=O)[O-])ccc21	0.484	30.6		
CC[N+]1=C(/C=C/C=C/C=C2/N(CCCCCC(=O)NCCCCCCNc3nc4c(N)ncnc4n3[C@@H]3O[C@H](COP(=O)(O)OP(=O)(O)OP(=O)(O)O)[C@@H](O)[C@H]3O)c3ccc(S(=O)(=O)O)cc3C2(C)C)C(C)(C)c2cc(S(=O)(=O)[O-])ccc21			2300	
COc1ccc(-c2c(O)c(O)c(-c3ccc(OC)cc3)c(OC)c2OC)cc1	49			
Nc1ncnc2c1ncn2[C@@H]1O[C@H](COP(=O)(O)OP(=O)(O)OP(=O)(O)O)[C@@H](O)[C@H]1O [ADENOSINE TRIPHOSPHATE]	0.001	0.037	37	EC50 [3]: 1 nM
